# Laboratory results: ChEMBL document CHEMBL4610126, “EEDi-5285: An Exceptionally Potent, Efficacious, and Orally Active Small-Molecule Inhibitor of Embryonic Ectoderm Development” (J Med Chem, 2020)
# Assays:
# KARPAS-422 [1] = test: Growth inhibition of human KARPAS422 cells incubated for 7 days by WST8 assay; details: KARPAS-422, 168 h
# Polycomb protein EED = Polycomb protein EED (Homo sapiens, UniProt O75530)
# Pfeiffer [2] = test: Growth inhibition of human Pfeiffer cells incubated for 7 days by WST8 assay; assay type: functional, cell-based; details: 168 h
# [3] = Plasma concentration in mouse at 25 mg/kg, po after 1 hr by LC-MS/MS analysis; assay type: ADME, organism-based
# [4] = Plasma concentration in mouse at 25 mg/kg, po after 3 hrs by LC-MS/MS analysis; assay type: ADME, organism-based
# [5] = Plasma concentration in mouse at 25 mg/kg, po after 6 hrs by LC-MS/MS analysis; assay type: ADME, organism-based
# Pfeiffer [6] = test: Growth inhibition of human Pfeiffer cells incubated for 10 days by WST8 assay; assay type: functional, cell-based; details: 240 h
# KARPAS-422 [7] = test: Antitumor activity against human KARPAS422 cells xenografted in SCID mouse assessed as induction of tumor regression at 50 mg/kg, po dosed daily for 28 days relative to control; assay type: functional
# KARPAS-422 [8] = test: Antitumor activity against human KARPAS422 cells xenografted in SCID mouse assessed as induction of tumor regression at 100 mg/kg, po dosed daily for 28 days relative to control; assay type: functional
# [9] = Toxicity in SCID mouse xenografted with human KARPAS422 cells assessed as induction of body weight loss at 50 to 100 mg/kg, po dosed daily for 28 days; assay type: organism-based, KARPAS-422; details: in vivo, 672 h
# [10] = AUC (0 to t) in mouse at 2 mg/kg, iv by LC-MS/MS analysis; assay type: ADME, organism-based; details: in vivo
# [11] = Terminal half life in mouse at 10 mg/kg, po by LC-MS/MS analysis; assay type: ADME, organism-based; details: in vivo, read-out: beta t1/2 (converted)
# [12] = Cmax in mouse at 10 mg/kg, po by LC-MS/MS analysis; assay type: ADME, organism-based; parameters: dose 10 mg/kg, route oral; details: in vivo
# [13] = AUC (0 to t) in mouse at 10 mg/kg, po by LC-MS/MS analysis; assay type: ADME, organism-based; details: in vivo
# [14] = Plasma clearance in mouse at 2 mg/kg, iv by LC-MS/MS analysis; assay type: ADME, organism-based
# [15] = Volume of distribution at steady state in mouse at 2 mg/kg, iv by LC-MS/MS analysis; assay type: ADME, organism-based; details: in vivo, read-out: Vdss
# KARPAS-422 [16] = test: Antitumor activity against human KARPAS422 cells xenografted in mouse assessed as inhibition of tumor growth at 100 mg/kg, po dosed twice daily for 36 days; assay type: functional; details: KARPAS-422, po, 864 h, read-out: TGI
# Polycomb protein EED, sequence (O75530 whole entry): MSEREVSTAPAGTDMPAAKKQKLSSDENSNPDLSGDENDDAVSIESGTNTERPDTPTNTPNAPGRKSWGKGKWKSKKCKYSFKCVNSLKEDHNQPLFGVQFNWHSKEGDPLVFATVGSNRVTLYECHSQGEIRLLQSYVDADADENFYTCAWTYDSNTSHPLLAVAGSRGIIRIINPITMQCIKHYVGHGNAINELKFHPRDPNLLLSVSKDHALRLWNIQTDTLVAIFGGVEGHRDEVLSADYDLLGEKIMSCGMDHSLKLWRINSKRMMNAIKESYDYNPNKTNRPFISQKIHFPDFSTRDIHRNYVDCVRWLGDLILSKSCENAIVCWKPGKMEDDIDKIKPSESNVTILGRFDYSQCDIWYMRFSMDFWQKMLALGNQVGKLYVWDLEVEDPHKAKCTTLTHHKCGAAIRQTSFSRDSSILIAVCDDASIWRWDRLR
SMILES,IC50 (KARPAS-422 [1]),IC50 (Polycomb protein EED),IC50 (Pfeiffer [2]),concentration at 1 h [3],concentration at 3 h [4],concentration at 6 h [5],further results
CCOC(=O)c1ncn2c(NCc3c(F)cccc3OC)ncc(-c3ccccc3)c12,300 nM,50 nM,–,–,–,–,–
CCOC(=O)c1ncn2c(NCc3cccc4c3CCO4)ncc(-c3ccccc3)c12,210 nM,–,–,–,–,–,–
CCOC(=O)c1ncn2c(NCc3cccc4c3OCO4)ncc(-c3ccccc3)c12,300 nM,40 nM,–,–,–,–,–
Cc1nc(C(F)(F)F)ccc1-c1cnc(NCc2c(F)ccc3c2CCO3)n2cnc(S(C)(=O)=O)c12,1.7 nM,0.4 nM,0.05 nM,896 ng/mL,794 ng/mL,415 ng/mL,–
CS(=O)(=O)c1ccc(-c2cnc(NCc3c(F)ccc4c3CCO4)n3cnc(S(C)(=O)=O)c23)cn1,2.9 nM,–,0.5 nM,351 ng/mL,36 ng/mL,41 ng/mL,–
CC(=O)N1CCC(c2cnc(NCc3c(F)ccc4c3CCO4)n3cnc(S(C)(=O)=O)c23)CC1,6.5 nM,2.8 nM,–,–,–,–,–
CCN1CCC(c2cnc(NCc3c(F)ccc4c3CCO4)n3cnc(S(C)(=O)=O)c23)CC1,126 nM,23 nM,–,–,–,–,–
CS(=O)(=O)c1ccc(-c2cnc(NCc3c(F)ccc4c3CCO4)n3cnc(S(C)(=O)=O)c23)cc1,1.4 nM,–,0.02 nM,598 ng/mL,171 ng/mL,109 ng/mL,–
CS(=O)(=O)c1ncn2c(NCc3c(F)ccc4c3CCO4)ncc(C3CCS(=O)(=O)CC3)c12,29 nM,7.8 nM,–,–,–,–,–
Cc1ccc(-c2cnc(NCc3c(F)ccc4c3CCO4)n3cnc(S(C)(=O)=O)c23)cn1,1.4 nM,–,0.03 nM,340 ng/mL,94 ng/mL,29 ng/mL,–
CN(C)[C@H]1CN(C2CCc3cccc(F)c32)C[C@@H]1c1ccc(N2CCN(S(C)(=O)=O)CC2)cc1 (some centres undefined),–,–,–,–,–,–,IC50 (Pfeiffer [6]): 69 nM
CS(=O)(=O)c1ncn2c(NCc3c(F)ccc4c3CCO4)ncc(-c3ccccc3)c12,2.2 nM,–,–,–,–,–,–
CS(=O)(=O)c1ncn2c(NCc3c(F)ccc4c3CCO4)ncc(-c3ccc(C(F)F)nc3)c12,2.4 nM,0.2 nM,0.02 nM,242 ng/mL,18 ng/mL,< 10 ng/mL,–
Cc1ccc(-c2cnc(NCc3c(F)ccc4c3CCO4)n3cnc(S(C)(=O)=O)c23)c(C)n1,–,0.5 nM,–,2480 ng/mL,754 ng/mL,485 ng/mL,Activity (KARPAS-422 [7]): 100%; Activity (KARPAS-422 [8]): 100%; Activity [9]: Non-Toxic; AUC(0-t) [10]: 800 ng·h/mL; half-life [11]: 2.1 h; Cmax [12]: 1300 ng/mL; AUC(0-t) [13]: 2600 ng·h/mL; clearance [14]: 40 mL/min/kg; Vd [15]: 1.6 L/kg
CNC(=O)c1ncn2c(NCc3c(F)ccc4c3CCO4)ncc(-c3ccccc3)c12,60 nM,–,–,–,–,–,–
CS(=O)(=O)c1ncn2c(NCc3c(F)ccc4c3CCO4)ncc(C3CCN(S(C)(=O)=O)CC3)c12,15.3 nM,7.9 nM,–,–,–,–,–
CP(C)(=O)c1ncn2c(NCc3c(F)ccc4c3CCO4)ncc(-c3ccccc3)c12,8.1 nM,–,–,–,–,–,–

SMILES,IC50 (KARPAS-422 [1]),IC50 (Polycomb protein EED),IC50 (Pfeiffer [2]),concentration at 1 h [3],concentration at 3 h [4],concentration at 6 h [5],further results
Fc1ccc2c(c1CNc1ncc(-c3ccccc3)c3c(C(F)(F)F)ncn13)CCO2,120 nM,–,–,–,–,–,–
CCOC(=O)c1ncn2c(NCc3ccc(OC)cc3F)ncc(-c3ccccc3)c12,4300 nM,–,–,–,–,–,–
CS(=O)(=O)c1ccc(-c2cnc(NCc3ccco3)n3cnnc23)cc1,180 nM,17.6 nM,–,–,–,–,inhibition in vivo at 100 mg/kg (KARPAS-422 [16]): 85%
CS(=O)(=O)c1ncn2c(NCc3c(F)ccc4c3CCO4)ncc(C3CCN(S(=O)(=O)C4CC4)CC3)c12,8.2 nM,3.1 nM,–,–,–,–,–
CCOC(=O)c1ncn2c(NCc3ccco3)ncc(-c3ccccc3)c12,1000 nM,–,–,–,–,–,–
CS(=O)(=O)c1ncn2c(NCc3c(F)ccc4c3CCO4)ncc(-c3ccc(C(F)(F)F)nc3)c12,1.7 nM,0.3 nM,0.03 nM,468 ng/mL,189 ng/mL,139 ng/mL,–
CCOC(=O)c1ncn2c(NCc3cc(OC)ccc3F)ncc(-c3ccccc3)c12,2700 nM,–,–,–,–,–,–
Cn1cc(-c2cnc(NCc3c(F)ccc4c3CCO4)n3cnc(S(C)(=O)=O)c23)cn1,3.1 nM,0.5 nM,0.27 nM,468 ng/mL,50 ng/mL,56 ng/mL,–
Cc1cc(S(C)(=O)=O)ccc1-c1cnc(NCc2c(F)ccc3c2CCO3)n2cnc(S(C)(=O)=O)c12,1.6 nM,0.9 nM,0.02 nM,591 ng/mL,279 ng/mL,98 ng/mL,–
Cc1ncccc1-c1cnc(NCc2c(F)ccc3c2CCO3)n2cnc(S(C)(=O)=O)c12,3.6 nM,–,0.08 nM,488 ng/mL,194 ng/mL,91 ng/mL,–
CS(=O)(=O)c1ncn2c(NCc3c(F)ccc4c3CCO4)ncc(-c3ccc(F)cc3)c12,5.2 nM,0.4 nM,0.12 nM,43 ng/mL,< 10 ng/mL,< 10 ng/mL,–
CS(=O)(=O)c1ncn2c(NCc3c(F)ccc4c3CCO4)ncc(C3CCOCC3)c12,52 nM,12 nM,–,–,–,–,–
CCOC(=O)c1ncn2c(NCc3cccc4c3OCC4)ncc(-c3ccccc3)c12,6300 nM,–,–,–,–,–,–
CS(=O)(=O)c1ncn2c(NCc3c(F)ccc4c3CCO4)ncc(-c3ccc(C4CC4)nc3)c12,0.5 nM,0.2 nM,0.02 nM,1100 ng/mL,608 ng/mL,452 ng/mL,Activity (KARPAS-422 [7]): 100%; Activity (KARPAS-422 [8]): 100%; Activity [9]: Non-Toxic; AUC(0-t) [10]: 1700 ng·h/mL; Cmax [12]: 1800 ng/mL; AUC(0-t) [13]: 6000 ng·h/mL; clearance [14]: 20 mL/min/kg; Vd [15]: 1.4 L/kg
CCOC(=O)c1ncn2c(NCc3ccccc3)ncc(-c3ccccc3)c12,3000 nM,–,–,–,–,–,–
CNC(=O)c1ncn2c(NCc3ccco3)ncc(-c3ccccc3)c12,2400 nM,–,–,–,–,–,–
